# Measurements taken from US20040116346A1, “Affinity small molecules for the EPO receptor” (priority 2002, published 2004).
# How the values were obtained:
# TF-1 and UT-7 cells = assay: biological testing in cell lines (cell proliferation assay and cell signaling assay); format: cell-based
# From the text: Compounds identified in the initial screen were further tested for their biological activity in two assays: a cell proliferation assay and a cell signaling assay in TF-1 and UT-7 cells. The hit rate in cell proliferation was 0.16%; hit rate in cell signaling was 0.25%.
# At the end of the biological testing in cell lines TF-1 and UT-7, E4, E5, E5 analogs and E6 molecules were some of the compounds identified as showing the best activity.
# Compounds identified in the initial screen were further tested for their biological activity in two assays: a cell proliferation assay and a cell signaling assay in TF-1 cells. The hit rate in cell proliferation was 0.16%; hit rate in cell signaling was 0.25%.
# At the end of the biological testing in cell line, E4, E5, E5 analog, and E6 molecules were some of the compounds identified as showing the best activity.
# TF-1 cells = assay: Cell proliferation; format: cell-based; details: TF-1 cells stimulated for 96 hours
# Protocol: TF-1 cells were stimulated for 96 hours with different non-peptide EPO-R modulators, and it was observed that the non-peptide EPO binding molecules stimulated cellular proliferation in dose-responsive manner and to the extent of the natural hormone.
# [1] = test system: carboplatin-treated 8 week old C57BL mice; assay: Carboplatin induced anemia model (hematocrit); format: in vivo, mouse; details: mouse, in vivo
# Protocol: Mice were treated with Carboplatin agent (available from Sigma, used regularly in chemotherapy) and a drop in hematocrit was induced. […] (FIGS. 9-11)
# Determination of Effect of Non-peptide EPO-R Binding Small Molecule on Hematocrit in Carboplatin-Induced Anemia in 8 Week C57BI Male Mice
# Preparation of injection solutions: Vehicle—Saline with 0.1 mg/mL BSA; Add 30 mg of BSA to 300 mL Saline; Vacuum filter under sterile conditions in laminar flow hood; Aliquot the saline (0.1 mg/mL BSA) solution into mini-sorp tubes. At least 41×7 mL aliquots should be prepared. Place caps on the tubes and store refrigerated at 4° C.;
# Carboplatin—Dose of 120 mg/kg: Calculations for single injection given to 36 male mice (8 wks old˜25 g): […]×0.025 kg×36 mice=108 mg; Injections are delivered i.p. in a volume of 0.5 cc/mouse=0.5 cc/mouse×36 mice=18 cc; Carboplatin at 6 mg/mL for 36 mice: 108 mg/18 cc.; 120 mg/20 cc; On day of injection, add 120 mg carboplatin (Sigma #C2538) to 20 cc saline in a 100 cc beaker containing a stirring bar. Cover beaker with parafilm. Mix until the carboplatin has completely dissolved.
# 11 nmole/kg/mouse/day×0.025 kg×12 mice=3.3 nmoles/day; Injections are delivered i.p. in a volume of 0.5 cc/mouse/day=0.5 cc/mouse/day×12 mice=6 cc/day; non-peptide EPO-R binding small molecule for […]: 3.3 nmoles/6 cc each day: 3.85 nmole/7 cc each day; non-peptide EPO-R binding small molecule aliquot at 2 mM=2 nmole/uL; 3.85 nmole per day in 7 cc (0.55 nmole/mL); Therefore: 3.85 nmole divided by 2 nmole/uL stock=1.925 uL at 2 mM; Prepare in advance at least 10 aliquots of non-peptide EPO-R binding small molecule at 2 mM in small microfuge tubes, each with a volume of 2 uL. Freeze these aliquots; On each day of injections, add 1 thawed aliquot of the non-peptide EPO-R binding small molecule at 2 mM containing a 2 uL volume to a tube containing 7 cc of sterile saline (0.1 mg/mL BSA). […]
smiles,measurement,setting,value
Cc1ccc(Cl)cc1Nc1nc2nc(C)c(NCC3CC3)cn2n1 [Compound E5],maximum activity compared to EPO natural hormone,TF-1 and UT-7 cells; cell line (TF-1 cells),maximum activity comparable to that of the maximum activity of EPO
same,maximum activity compared to EPO natural hormone,"TF-1 and UT-7 cells; cell lines TF-1 and UT-7, in the presence of low levels of EPO",maximum activity comparable to that of the maximum activity of EPO
same,cellular proliferation,TF-1 cells,proliferative effect
same,hematocrit levels in animals treated with carboplatin,[1],restore hematocrit levels
